The text below walks through data of the RepoRT retention time repository.

The series can be described thus: Waters ACQUITY UPLC BEH C18, 100 × 2.1 mm, 1.7 µm, 40 °C, 0.3 to 0.4 mL/min, estimated dead time 0.63 min; A: water + 0.1% formic acid; B: methanol + 0.1% formic acid; gradient (min/%B) 0/0.5 0.1/0.5 10/80 10.1/99.5 12/99.5. Conditions: stereoisomer not certain.
`COc1c(CC=C(C)C)c(O)cc2c1C1Oc3cc(O)c(CC=C(C)C)cc3C1CO2` (stereo unspecified): the LC retention time is 9.29 min. The same measure for `CCC(C)C(N)C(=O)NC(C(=O)O)C(C)C` (stereo unspecified): 2.55 min; for `C=CC1C2=CCOC(=O)C2=COC1OC1OC(CO)C(O)C(O)C1O` (stereo unspecified): 3.44 min.

Take `COc1cc(-c2cc(=O)c3c(O)cc(OC4OC(C(=O)O)C(O)C(O)C4O)cc3o2)cc(OC)c1O` (stereo unspecified): the LC retention time is 4.54 min.

Consider `C=CC1C(OC2OC(CO)C(O)C(O)C2O)OC=C(C(=O)O)C1CC1NCCc2c1[nH]c1ccccc21` (stereo unspecified), for which the LC retention time was 3.94 min. With `O=c1cc(-c2ccc(O)c(O)c2)oc2cc(O)cc(O)c12`, the LC retention time is 5.34 min. Under `O=c1cc(-c2ccc(O)cc2)oc2cc(O)c(C3OC(CO)C(O)C(O)C3O)c(O)c12` (stereo unspecified) stands 3.95 min; under `O=CC=Cc1ccc(O)cc1`, 4.53 min; under `CC(C)=CCCC(C)(OC1OC(COC2OCC(O)C(O)C2O)C(O)C(O)C1O)C1CCC2(C)C1C(O)CC1C3(C)CCC(O)C(C)(C)C3C(O)CC12C` (stereo unspecified), 6.11 min.

On to `O=C1CC(c2ccc(O)cc2)Oc2cc(O)ccc21` (stereo unspecified), for which the LC retention time was 5.3 min. Under `CC1=C(O)C(=O)CC(OC2CC(C)(C)CC3C4=CCC5C6(C)CCC(OC7OC(C(=O)O)C(O)C(O)C7OC7OCC(O)C(O)C7OC7OC(C)C(O)C(O)C7O)C(C)(CO)C6CCC5(C)C4(C)CCC23C)O1` (stereo unspecified) stands 7.79 min; under `COc1cc(-c2cc(=O)c3c(O)cc(OC4OC(CO)C(O)C(O)C4O)cc3o2)cc(OC)c1O` (stereo unspecified), 4.57 min; under `NCCCCNC(=O)c1ccccc1`, 2.71 min. The same measure for `OC1CCN2Cc3ccccc3N=C12` (stereo unspecified): 2.55 min. Under `C=CC12CN(C)C3C4COC(CC41)C1(C(=O)Nc4ccccc41)C32` (stereo unspecified) stands 3.21 min. Turning to `O=C(C=Cc1ccc(O)cc1)NCCCCN(CCCNC(=O)C=Cc1ccc(O)cc1)C(=O)C=Cc1ccc(O)cc1`, the LC retention time was 5.62 min. The same measure for `COc1cc(C2Oc3c(O)cc(C4Oc5cc(O)cc(O)c5C(=O)C4O)cc3C2CO)ccc1O` (stereo unspecified): 4.96 min; for `CC=C1CC(C)C(O)(CO)C(=O)OCC2=CCN3CCC(OC1=O)C23` (stereo unspecified): 3.23 min; for `COc1ccc(C=CC(=O)c2c(O)cc(OC3OC(CO)C(O)C(O)C3OC3OC(C)C(O)C(O)C3O)cc2O)cc1` (stereo unspecified): 5.42 min. The same measure for `CC(N)C(=O)NC(Cc1ccccc1)C(=O)O` (stereo unspecified): 2.84 min; for `COc1c(CC=C(C)C)c(O)cc2oc(=O)c(-c3ccc(O)cc3O)cc12`: 7.01 min. Under `CC1CNC2(OC3CC4C5CCC6CC(OC7OC(CO)C(OC8OC(CO)C(O)C(O)C8OC8OC(CO)C(O)C(O)C8O)C(O)C7O)CCC6(C)C5CCC4(C)C3C2C)C(O)C1` (stereo unspecified) stands 4.24 min. For `CC(C)CC(NC(=O)C(C)N)C(=O)O` (stereo unspecified), the LC retention time is 2.36 min. Under `CC1(C)CCC2(C(=O)OC3OC(CO)C(O)C(O)C3O)CCC3(C)C(=CCC4C5(C)CCC(OC6OC(C(=O)O)C(O)C(O)C6OC6OC(CO)C(O)C(O)C6O)C(C)(C)C5CCC43C)C2C1` (stereo unspecified) stands 6.18 min. The same measure for `COc1ccc(-c2coc3cc(OC4OC(COC(=O)CC(=O)O)C(O)C(O)C4O)c(OC)cc3c2=O)cc1` (stereo unspecified): 5.38 min. Take `Nc1[nH]c(=O)[nH]c(=O)c1OC1OC(CO)C(O)C(O)C1O` (stereo unspecified): the LC retention time is 2.01 min.

Regarding `COc1cc(CC(=O)O)ccc1O`, the LC retention time is 3.84 min. The same measure for `COc1cc(C=CC(=O)OC2C(O)CC(O)(C(=O)O)CC2O)ccc1O` (stereo unspecified): 3.74 min. Under `O=C(CCc1ccc(O)cc1)c1c(O)cc(O)cc1OC1OC(CO)C(O)C(O)C1O` (stereo unspecified) stands 4.73 min; under `O=c1c(O)c(-c2ccc(O)cc2)oc2cc(O)cc(O)c12`, 6.01 min. The same measure for `CCCCCC(=O)OC1C(CO)OC(OC2(CO)OC(CO)C(OC(C)=O)C2O)C(OC(=O)CCCCC)C1OC(=O)CCCCC` (stereo unspecified): 9.97 min; for `CCN(CC)CCOC(=O)c1ccc(N)cc1`: 2.75 min. Take `NCCCCNC(=O)C=Cc1ccc(O)cc1`: the LC retention time was 2.67 min. The same measure for `CC(CSCC(NC(=O)CCC(NCC1(O)OCC(O)C(O)C1O)C(=O)O)C(=O)NCC(=O)O)C(=O)O` (stereo unspecified): 2.4 min. Under `OCC1OC(Oc2cc(O)cc3[o+]c(-c4ccc(O)c(O)c4)c(OC4OC(CO)C(O)C(O)C4OC4OCC(O)C(O)C4O)cc23)C(O)C(O)C1O` (stereo unspecified) stands 2.49 min; under `CC(C)=CCC=C(C)C1CCC2(C)C1C(O)CC1C3(C)CCC(OC4OC(CO)C(O)C(O)C4O)C(C)(C)C3CCC12C` (stereo unspecified), 7.63 min. Under `CC=CSSC=CC` stands 6.41 min; under `O=c1ccn(C2OC(CO)C(O)C2O)c(=O)[nH]1` (stereo unspecified), 1.8 min.

On to `OCCc1c[nH]c2ccccc12`, for which the LC retention time was 3.06 min. Under `COc1ccc2c(c1)OC(O)C(=O)N2O` (stereo unspecified) stands 2.59 min; under `CC1CCC2(C(=O)O)CCC3(C)C(=CCC4C5(C)CC(O)C(O)C(C)(C)C5CCC43C)C2C1C` (stereo unspecified), 9.89 min; under `C=CC1c2cc3n(c(=O)c2C2OC1OC1OC(CO)C(O)C(O)C1O2)CCc1c-3[nH]c2ccccc12` (stereo unspecified), 5.46 min. Under `COc1ccc(CC2COC(=O)C2Cc2ccc(OC3OC(CO)C(O)C(O)C3O)c(OC)c2)cc1OC` (stereo unspecified) stands 5.18 min; under `CC1OC(OC2CC(C)(C)CC3C4=CCC5C6(C)CCC(OC7OC(C(=O)O)C(O)C(O)C7OC7OC(CO)C(O)C(O)C7OC7OCC(O)C(O)C7O)C(C)(CO)C6CCC5(C)C4(C)CCC23C)C(O)C(O)C1O` (stereo unspecified), 5.56 min; under `O=c1c(OC2OC(CO)C(O)C(O)C2O)c(-c2ccc(OC3OC(CO)C(O)C(O)C3O)c(O)c2)oc2cc(O)cc(O)c12` (stereo unspecified), 3.54 min. The same measure for `CC(=O)OCC1OC(Oc2c(-c3ccc(O)c(O)c3)oc3cc(O)cc(O)c3c2=O)C(O)C(O)C1O` (stereo unspecified): 4.42 min; for `O=c1cc(-c2ccc(O)cc2)oc2cc(OC3OC(CO)C(O)C(O)C3O)c(O)c(O)c12` (stereo unspecified): 4.13 min.

Turning to `CC1OC(OC2C(c3c(O)cc4oc(-c5ccc(O)c(O)c5)cc(=O)c4c3O)OC(CO)C(O)C2O)C(O)C(O)C1O` (stereo unspecified), the LC retention time is 4.48 min.

In the case of `O=C1CC(c2ccccc2O)Oc2ccccc21` (stereo unspecified), the LC retention time is 7.45 min. The same measure for `COc1cc(CCN)ccc1O`: 2.06 min; for `COc1ccc2cc1Oc1ccc(cc1)CC1=NCCc3cc(OC)c(cc31)Oc1c(OC)c(OC)c(O)c3c1C(C2)N(C)CC3` (stereo unspecified): 3.96 min; for `O=C1c2ccc(O)cc2OCC1c1ccc(O)c(OC2OC(CO)C(O)C(O)C2O)c1` (stereo unspecified): 3.56 min. Under `CC(CCC1(O)OC2CC3C4CCC5CC(OC6OC(CO)C(OC7OC(CO)C(O)C(O)C7OC7OC(CO)C(O)C(O)C7O)C(O)C6O)CCC5(C)C4CCC3(C)C2C1C)COC1OC(CO)C(O)C(O)C1O` (stereo unspecified) stands 4.91 min; under `O=c1cc(-c2ccc(O)c(O)c2)oc2c(C3OC(CO)C(O)C(O)C3O)c(O)cc(O)c12` (stereo unspecified), 3.7 min; under `CN1c2cc(O)c(N=NC(N)=O)cc2CC1S(=O)(=O)O` (stereo unspecified), 2.69 min. Under `O=C1CC(c2ccc(O)cc2)Oc2cc(OC3OC(CO)C(O)C(O)C3O)cc(O)c21` (stereo unspecified) stands 4.52 min; under `CC(CSCC(NC(=O)CCC(N)C(=O)O)C(=O)O)C(=O)O` (stereo unspecified), 2.39 min; under `O=C(C=Cc1ccc(O)cc1)OC1C(OC2C(Oc3ccc(-c4cc(=O)c5c(O)cc(O)cc5o4)cc3)OC(C(=O)O)C(O)C2O)OC(C(=O)O)C(O)C1O` (stereo unspecified), 4.77 min.

With `CCC(C)C(NC(=O)C([NH3+])C(C)C)C(=O)[O-]` (stereo unspecified), the LC retention time is 2.88 min. Under `O=C(O)C1OC(Oc2c(-c3ccc(O)c(O)c3)oc3cc(O)cc(O)c3c2=O)C(O)C(O)C1O` (stereo unspecified) stands 4.01 min; under `CC1=C(O)C(=O)CC(OC2CC(C)(C)CC3C4=CCC5C6(C)CCC(OC7OC(C(=O)O)C(O)C(O)C7OC7OC(C(=O)O)C(O)C(O)C7OC7OC(C)C(O)C(O)C7O)C(C)(CO)C6CCC5(C)C4(C)CCC23C)O1` (stereo unspecified), 7.66 min; under `O=C(C=Cc1ccc(O)c(O)c1)NCCCCN(CCCNC(=O)C=Cc1ccc(O)cc1)C(=O)C=Cc1ccc(O)c(O)c1`, 5 min. Regarding `CCC12CCCN3CCc4c(n(c5ccccc45)C(O)(C(=O)OC)C1)C32` (stereo unspecified), the LC retention time was 4.5 min. Under `COc1cc(C=CC(=O)OC2C(OC3C(Oc4c(-c5ccc(O)cc5)oc5cc(OC6OC(CO)C(OC7OC(CO)C(O)C(O)C7O)C(O)C6O)cc(O)c5c4=O)OC(CO)C(O)C3O)OC(CO)C(O)C2O)ccc1O` (stereo unspecified) stands 4.01 min; under `COc1ccc2cc1Oc1ccc(cc1)CC1=NCCc3cc(OC)c(cc31)Oc1c(OC)c(OC)c([O-])c3c1C(C2)[NH+](C)CC3` (stereo unspecified), 3.96 min; under `O=C(O)c1cc(=O)c2ccccc2[nH]1`, 3.11 min.

`COc1ccc(-c2cc(=O)c3c(O)cc(OC4OC(CO)C(O)C(O)C4OC4OC(C)C(O)C(O)C4O)cc3o2)cc1O` (stereo unspecified): the LC retention time is 4.47 min.

As for `CCCCCCCCNC(O)CCc1ccc(O)c(OC)c1` (stereo unspecified), the LC retention time was 5.25 min. As for `O=c1cc(-c2ccccc2)oc2ccccc12`, the LC retention time is 7.75 min.

As for `C=C(CCC=C(C)C)C1CCC2(C)C1C(O)CC1C3(C)CCC(O)C(C)(C)C3C(OC3OC(CO)C(O)C(O)C3OC3OC(C)C(O)C(O)C3O)CC12C` (stereo unspecified), the LC retention time is 7.57 min. Under `CC1(C)CC(O)C2(C)CCC3(C)C(=CCC4C5(C)CCC(OC6OC(C(=O)O)C(O)C(O)C6OC6OC(CO)C(O)C(O)C6OC6OCC(O)C(O)C6O)C(C)(CO)C5CCC43C)C2C1` (stereo unspecified) stands 5.73 min.
